One assay concerns H226 cells. The assay can be described thus: MTT cell viability assay, H226. The assay is classed as cell-based, human. Conditions: 72 h, MTT, read-out: IC50 ± SD, growth inhibition, H226. The procedure:
(§1) All the synthesized chalcone-derived pyrazoles were evaluated for their antiproliferative activity against three human non-small cell lung cancer cell lines: A-549, H226, and H460, and a nonmalignant human embryonic kidney cell line HEK293. Cisplatin and 5-fluorouracil (5-FU) were used as a reference. Cells were exposed to a range of PCH concentrations (0.5–100 µM) for 72 h and analyzed by 3-(4,5-dimethylthiazol-2-yl)-2,5-diphenyl-2H-tetrazolium bromide (MTT) assay. The results of the studies are expressed as the IC50 concentration that inhibits 50% growth of cells. […] Following treatment with PCH-1, the viability of all the tested cancer cell lines decreased in a concentration-dependent manner.
(§2) The cell viability assay was performed for A-549, H226, H460, and HEK293 cells after treatment with the test compounds by using the 3-(4,5-dimethylthiazol-2-yl)-2,5-diphenyltetrazolium bromide (MTT, Sigma-Aldrich) assay. Briefly, cells were seeded onto 96-well culture plates for attachment. After 24 h, triplicate wells were treated with DMSO (1%) and the agents. After 72 h of incubation at 37 °C in 5% CO2, the MTT solution (0.4 mg/ml) was added to each well. After 2–4 h of incubation, the medium was removed, and the formazan crystals were dissolved in 100 μl of DMSO. The absorption was measured at 450 nm with an ASYS UVM340 microplate reader (Biochrom Ltd.). The 50% inhibitory concentration (IC50) was defined as the concentration that reduced the absorbance of the DMSO-treated wells by 50% of the vehicle. The IC50 values were generated from GraphPad Prism 9 software by plotting the survival curve as a function of dose from 3 independent experiments.

In the next assay the test system is H460 cells. Description: MTT cell viability assay, H460. It counts as cell-based, human. The conditions noted are these: 72 h, MTT, read-out: IC50 ± SD, growth inhibition, H460. The procedure:
as §1, §2

Assay [1] relates to A-549 cells. The assay can be described thus: MTT cell viability assay, A-549. It counts as cell-based, human. The conditions noted are these: 72 h, MTT, read-out: IC50 ± SD, growth inhibition, A-549. The protocol:
All the synthesized chalcone-derived pyrazoles were evaluated for their antiproliferative activity against three human non-small cell lung cancer cell lines: A-549, H226, and H460, and a nonmalignant human embryonic kidney cell line HEK293. Cisplatin and 5-fluorouracil (5-FU) were used as a reference. […] The results of the studies are expressed as the IC50 concentration that inhibits 50% growth of cells. […] Following treatment with PCH-1, the viability of all the tested cancer cell lines decreased in a concentration-dependent manner.
as §2, with “After 72 h of incubation at 37 °C in 5% CO2, the MTT solution (0.4 mg/ml) was added to each well.” left out
On the technique in general: Tetrazolium dyes change colour on reduction, which living cells bring about.

For a further assay, the system named is HEK293 cells. Description: MTT cell viability assay, HEK293. The assay is classed as cell-based, human. The conditions noted are these: nonmalignant cells, read-out: IC50 ± SD, growth inhibition, HEK293. The procedure:
as §1, §2

For assay [2], the system named is A-549 cells. The assay can be described thus: Intracellular ROS measurement (H2DCFDA, flow cytometry). The assay is classed as cell-based, human. Conditions: A-549, all the tested time points (3, 6, 24 h). From the text: The generation of intracellular reactive oxygen species (ROS) causes an imbalance of cellular redox homeostasis, followed by damage of cellular components and cell death. Therefore, compounds with the ability to produce high levels of ROS and/or inhibit antioxidant processes are often used in anticancer therapies. In the present study, the effect of PCH-1 on ROS generation in A-549 cells was investigated by flow cytometry. As an indicator of ROS generation, the fluorescent probe 2ʹ,7ʹ-dichlorodihydrofluorescein diacetate (H2DCFDA) was used, which undergoes oxidation by ROS to form a highly fluorescent compound 2ʹ,7ʹ-dichlorofluorescein (DCF). As shown in Supplementary Fig. S6 in Supplementary Information, compound PCH-1 induced a massive amount of ROS in A-549 cells in a time-dependent manner. […] Moreover, the induction of ROS was equally high for PCH-1 and the reference compound H2O2 in all the tested time points.
For determination the ROS generation, cells were treated with IC90 of PCH-1, H2O2, or 1% DMSO for 3, 6, and 24 h. Next, a 1 µM CM-H2DCFDA (#C6827; Thermo-Fisher) probe was added to the cells in each plate 30 min before the end of the drug treatment. After incubation cells were collected by trypsinization, stained with 7-Aminoactinomycin D (7-AAD, Sigma-Aldrich), and measured. The analysis was performed with Guava EasyCyte 8 cell sorter (Merck Millipore) and FlowJo software v10. Each experiment was repeated independently three times.
(In general: In flow cytometry, cells or beads pass a laser one at a time.)

In the next assay the test system is tubulin. The assay can be described thus: HTS-tubulin polymerization assay. The assay is classed as biochemical. Conditions: 120-min kinetic reaction, absorbance 340 nm, vs vehicle. The protocol:
To further evaluate whether the tubulin–microtubule system was the target site of PCH-1, in vitro microtubule polymerization assays were performed using the microtubule protein with Paclitaxel and Vincristine as a reference. Paclitaxel and Vincristine are antimitotic drugs that have been commonly used in conventional chemotherapy for decades. In 1979, it was shown that Paclitaxel accelerates the initiation of tubulin fiber polymerization and stabilizes the formed tubulin fibers in vitro, even in the absence of GTP or MAP in the solution[30]. Vincristine, on the other hand, binds to tubulin and inhibits its polymerization.
The assay was performed according to the manufacturer’s instructions. Briefly, compounds were diluted in DMSO to a concentration of 2 mM and then in GTB buffer to a concentration of 50 µM. In the wells of a 96-well plate (UV transparent, half surface wells) previously heated to 37 °C, 10 µl of dilutions of the test compounds were placed in duplicate. The plate was incubated for 2 min at 37 °C, and 100 µl of freshly prepared tubulin solution (4 mg/ml) in GTB-GTP buffer was then added. The plate was immediately placed in a Tecan SPARK 10 M plate reader, and the reaction kinetics were measured with the following settings: absorbance reading: 340 nm, 37 °C, interval: 45 s, number of cycles: 160.

Like-named read-outs stand apart in the source and are kept apart here.

These results are taken from paper PMC8904451, “Novel chalcone-derived pyrazoles as potential therapeutic agents for the treatment of non-small cell lung cancer” (Scientific Reports, 2022).

By IC50 is commonly meant the concentration at which inhibition is half-maximal.

As to `O=c1[nH]cc(F)c(=O)[nH]1` [5-FU, 5-fluorouracil, reference compound], the half-inhibitory concentration (IC50) with H226 cells (Homo sapiens, NCI-H226) amounted to 4.01 ± 0.76 µM; with H460 cells (Homo sapiens, NCI-H460), 4.08 ± 0.43 µM; with A-549 cells [1] (Homo sapiens, A549), 8.12 ± 1.01 µM; with HEK293 cells (Homo sapiens, HEK293, 72 h), 11.1 ± 1.53 µM.

As for `N.N.[Cl][Pt][Cl]` [Cisplatin, reference compound], the half-maximal inhibitory concentration (IC50) with H226 cells amounted to 17.5 ± 2.12 µM; with H460 cells, 21.5 ± 1.87 µM; in the assay with A-549 cells [1], 29.01 ± 0.12 µM; with HEK293 cells (72 h), 28.4 ± 1.97 µM.

For the compound `COc1cc([C@@H]2c3cc4c(cc3[C@@H](O[C@@H]3O[C@@H]5CO[C@@H](C)O[C@H]5[C@H](O)[C@H]3O)[C@H]3COC(=O)[C@H]23)OCO4)cc(OC)c1O` [Etoposide, reference compound], the 50% inhibitory concentration (IC50) in the assay with H226 cells (Homo sapiens, NCI-H226) was 1.03 ± 0.16 µM; in the assay on H460 cells (Homo sapiens, NCI-H460), 0.05 ± 0.01 µM; in the assay with A-549 cells [1] (Homo sapiens, A549), 0.54 ± 0.21 µM; in the assay on HEK293 cells (Homo sapiens, HEK293, 72 h), 1.91 ± 0.97 µM.

`OO` [H2O2, reference compound]: in the assay with A-549 cells [2], the “induction of ROS, reference compared with PCH-1” value was “equally high”.

With `COc1cc(C2=NN(C(C)=O)C(c3ccc4c(c3)OCO4)C2)cc(OC)c1OC` (centres unmarked) [PCH-2, 1-[5-(2H-1,3-benzodioxol-5-yl)-3-(3,4,5-trimethoxyphenyl)-4,5-dihydro-1H-pyrazol-1-yl]ethan-1-one], the IC50 in the assay on H226 cells (Homo sapiens, NCI-H226) is 40.5 ± 3.52 µM; with H460 cells (Homo sapiens, NCI-H460) it was 43.8 ± 1.12 µM; with A-549 cells [1] (Homo sapiens, A549), above 100 µM; with HEK293 cells (Homo sapiens, HEK293, 72 h), above 100 µM.

Turning to `CC(=O)N1N=C(c2ccc(C)cc2)CC1c1ccc2c(c1)OCO2` (centres unmarked) [PCH-3, 1-[5-(2H-1,3-benzodioxol-5-yl)-3-(4-methylphenyl)-4,5-dihydro-1H-pyrazol-1-yl]ethan-1-one], the IC50 is 86.7 ± 0.92 µM in the assay on H226 cells (Homo sapiens, NCI-H226); 24.5 ± 1.74 µM in the assay on H460 cells (Homo sapiens, NCI-H460); above 100 µM with A-549 cells [1] (Homo sapiens, A549); above 100 µM in the assay with HEK293 cells (Homo sapiens, HEK293, 72 h).

As for `COc1ccccc1C1=NN(C(C)=O)C(c2ccc3c(c2)OCO3)C1` (centres unmarked) [PCH-4, 1-[5-(2H-1,3-benzodioxol-5-yl)-3-(2-methoxyphenyl)-4,5-dihydro-1H-pyrazol-1-yl]ethan-1-one], the IC50 with H226 cells (Homo sapiens, NCI-H226) is 86.7 ± 4.7 µM; with H460 cells (Homo sapiens, NCI-H460), 63.4 ± 3.34 µM; with A-549 cells [1] (Homo sapiens, A549), above 100 µM; in the assay on HEK293 cells (Homo sapiens, HEK293, 72 h), above 100 µM.

For the compound `CC(=O)N1N=C(c2ccc3c(c2)OCO3)CC1c1ccc2c(c1)OCO2` (centres unmarked) [PCH-5, 1-[3,5-bis(2H-1,3-benzodioxol-5-yl)-4,5-dihydro-1H-pyrazol-1-yl]ethan-1-one], the IC50 in the assay with H226 cells (Homo sapiens, NCI-H226) amounted to 58 ± 2.56 µM; in the assay on H460 cells (Homo sapiens, NCI-H460), 38.8 ± 1.77 µM; in the assay with A-549 cells [1] (Homo sapiens, A549) it was 60.9 ± 4.3 µM; in the assay with HEK293 cells (Homo sapiens, HEK293, 72 h), 47 ± 3.18 µM.

As to `CC(=O)N1N=C(c2ccc(OC(F)(F)F)cc2)CC1c1ccc2c(c1)OCO2` (centres unmarked) [PCH-6, 1-{5-(2H-1,3-benzodioxol-5-yl)-3-[4-(trifluoromethoxy)phenyl]-4,5-dihydro-1H-pyrazol-1-yl}ethan-1-one], the IC50 in the assay with H226 cells (Homo sapiens, NCI-H226) amounted to 24.4 ± 2.13 µM; in the assay on H460 cells (Homo sapiens, NCI-H460), 18.1 ± 2.13 µM; with A-549 cells [1] (Homo sapiens, A549), 21.5 ± 4.26 µM; with HEK293 cells (Homo sapiens, HEK293, 72 h), 42.9 ± 1.23 µM.

On to `COc1ccc(C2=NN(C(C)=O)C(c3ccc4c(c3)CCO4)C2)cc1` (centres unmarked) [PCH-7, 1-[5-(2,3-dihydro-1-benzofuran-5-yl)-3-(4-methoxyphenyl)-4,5-dihydro-1H-pyrazol-1-yl]ethan-1-one], for which the IC50 in the assay on H226 cells (Homo sapiens, NCI-H226) is 41.5 ± 1.12 µM; in the assay with H460 cells (Homo sapiens, NCI-H460), 30.2 ± 2.14 µM; with A-549 cells [1] (Homo sapiens, A549), above 100 µM; with HEK293 cells (Homo sapiens, HEK293, 72 h), above 100 µM.

On to `COc1ccc(C2=NN(C(C)=O)C(c3cc4c(cc3OC)OCO4)C2)cc1` (centres unmarked) [PCH-8, 1-[5-(6-methoxy-2H-1,3-benzodioxol-5-yl)-3-(4-methoxyphenyl)-4,5-dihydro-1H-pyrazol-1-yl]ethan-1-one], for which the IC50 was 61.1 ± 3.12 µM with H226 cells (Homo sapiens, NCI-H226); 30.2 ± 2.14 µM in the assay on H460 cells (Homo sapiens, NCI-H460); above 100 µM with A-549 cells [1] (Homo sapiens, A549); above 100 µM in the assay on HEK293 cells (Homo sapiens, HEK293, 72 h).

Take `COc1cc2c(cc1C1=NN(C(C)=O)C(c3ccc(O)cc3)C1)SCO2` (centres unmarked) [PCH-9, 1-[5-(4-hydroxyphenyl)-3-(6-methoxy-2H-1,3-benzoxathiol-5-yl)-4,5-dihydro-1H-pyrazol-1-yl]ethan-1-one]: the half-maximal inhibitory concentration (IC50) with H226 cells (Homo sapiens, NCI-H226) is 38.4 ± 3.53 µM; with H460 cells (Homo sapiens, NCI-H460) it was 43.8 ± 3.97 µM; with A-549 cells [1] (Homo sapiens, A549), 79.5 ± 4.97 µM; in the assay with HEK293 cells (Homo sapiens, HEK293, 72 h) it was 34.4 ± 2.01 µM.

Consider `CC(=O)O[C@H]1C(=O)[C@@]2(C)[C@H]([C@H](OC(=O)c3ccccc3)[C@]3(O)C[C@H](OC(=O)[C@H](O)[C@@H](NC(=O)c4ccccc4)c4ccccc4)C(C)=C1C3(C)C)[C@]1(OC(C)=O)CO[C@@H]1C[C@@H]2O` [Paclitaxel], for which the “effect on tubulin polymerization kinetics” value with tubulin is “accelerated the nucleation phase and increased the total mass of tubulin polymer”.

Regarding `CC[C@]1(O)C[C@H]2CN(CCc3c([nH]c4ccccc34)[C@@](C(=O)OC)(c3cc4c(cc3OC)N(C=O)[C@H]3[C@@](O)(C(=O)OC)[C@H](OC(C)=O)[C@]5(CC)C=CCN6CC[C@]43[C@@H]65)C2)C1` [Vincristine, vincristine], the “effect on tubulin polymerization kinetics” value in the assay on tubulin was “extended the nucleation time and reduced the total mass of tubulin polymer”.
